Results published in patent US9808003B2, “Herbicidally active 2-(substituted-phenyl)-cyclopentane-1,3-dione compounds and derivatives thereof” (Syngenta Limited, priority 2013, dated 2017).

Key:
Format in all cases: in vivo
Avena fatua (AVEFA) = assay: Test 1B glasshouse assay, post-emergence herbicidal activity against grassy weeds; conditions: 14 DAA
Procedure: (§1) Biological Example 1B tests the herbicidal activity of“technical” compounds (i.e. compounds not previously formulated before the test), as the herbicides under test.
(§2) An “instant formulation”, known as the “IF50”, containing 50 g/liter (i.e. 5% w/v) of the “technical” (i.e. unformulated) active ingredient (i.e. the herbicide under test), is prepared by dissolving the active ingredient in a mixture of organic solvents and emulsifier, details of which are provided in the Table below.
(§3) This IF50 is mixed with a small, variable amount of acetone to aid dissolution, before addition of a 0.5% v/v aqueous solution of the adjuvant Adigor™ (an adjuvant containing rapeseed oil methyl ester, ethoxylated alcohols, and a mixture of heavy aromatic hydrocarbons, e.g. available from Syngenta), as the aqueous diluent, to form an aqueous spray solution which contains a predetermined concentration of the active ingredient (which varies depending on the application rate of the active ingredient to the plants) and 0.5% v/v of the adjuvant Adigor™. This aqueous spray solution is suitable for spraying onto plants.
(§4) Seeds of a variety of test species are sown in standard soil in pots. After cultivation for 14 days under controlled conditions in a glasshouse (at 22/16° C., day/night; 16 hours light; 65% humidity), the plants are sprayed post-emergence with the above-mentioned aqueous spray solution containing inter alia the “technical” active ingredient (i.e. the herbicide under test) and the adjuvant Adigor™.
(§5) The test plants are then grown on under controlled conditions in the glasshouse (at 22/16° C., day/night; 16 hours light; 65% humidity) and are watered twice daily. 14 days after application of the test herbicide, the test is evaluated visually for percentage phytotoxicity to the plant (where 100%=total damage to plant; 0%=no damage to plant).
(§6) More specifically, post-emergence herbicidal activity (phytotoxicity) data, on certain tested grassy monocotyledonous weeds (and/or plants of the type Gramineae) and cereal crops in the glasshouse, are measured 14 days after application of the herbicide (14 DAA), typically for inter alia one or more of the following application rates: • (a) a post-emergence application rate of 60 g/ha of the test herbicide with or without 50 g/ha of cloquintocet-mexyl safener, and • (b) a post-emergence application rate of 90 g/ha of the test herbicide with 50 g/ha of cloquintocet-mexyl safener, and • (c) a post-emergence application rate of 120 g/ha of the test herbicide with 50 g/ha of cloquintocet-mexyl safener.
(§7) The cloquintocet-mexyl, when used, is present in the formulation containing the herbicide under test dissolved in acetone plus IF50.
(§8) The range of herbicide application rates tested sometimes includes application rates other than those shown above, and the rates can vary depending on the herbicide under test.
(§9) Herbicidal activity (phytotoxicity) is evaluated visually, and an assessed percentage phytotoxicity score is given for each herbicidal application on each plant species (with 100%=total damage to plant; 0%=no damage to plant; the assessment is recorded in increments of 1%). Two replicates are made for each experiment, and the mean herbicidal activity (phytotoxicity) data is reported.
(§10) For compounds A34, A98, A99, A87, A100, A101, A89, A120, A120A, A120B, A23, A127, A128, A89, A112 and A113 the tested weeds were as follows: Avena fatua (AVEFA), Lolium multiflorum (LOLMU), Setaria viridis (SETVI), Poa annua (POAAN), Alopecurus myosuroides (ALOMY). All five of these are grassy monocotyledonous weeds. Except for SETVI, these are all “cool-season” grassy monocotyledonous weeds.

[1] = test system: Lolium multiflorum (LOLMU); assay: as above; conditions: 14 DAA
Procedure: as §1, §2, §3, §4, §5, §6, §7, §8, §9, §10

Poa annua (POAAN) = assay: as above; conditions: 14 DAA
Procedure: as §1, §2, §3, §4, §5, §6, §7, §8, §9, §10

Setaria viridis (SETVI) = assay: as above; conditions: 14 DAA
Procedure: as §1, §2, §3, §4, §5, §6, §7, §8, §9, §10

[2] = test system: Alopecurus myosuroides (ALOMY); assay: as above; conditions: 14 DAA
Procedure: as §1, §2, §3, §4, §5, §6, §7, §8, §9, §10

[3] = test system: Spring Barley “Harrington”; assay: Test 1B glasshouse assay, post-emergence herbicidal activity against cereal crops
Procedure: as §1, §2, §3, §4, §5, §6, §7, §8, §9

Winter Barley “Suzuka” = assay: as above
Procedure: as §1, §2, §3, §4, §5, §6, §7, §8, §9

Winter Wheat “Hereward” = assay: as above
Procedure: as §1, §2, §3, §4, §5, §6, §7, §8, §9

[4] = 30 g/ha herbicide, 50 g/ha cloquintocet-mexyl
[5] = 45 g/ha herbicide, 50 g/ha cloquintocet-mexyl
[6] = 60 g/ha herbicide, 0 g/ha cloquintocet-mexyl
[7] = 60 g/ha herbicide, 50 g/ha cloquintocet-mexyl
[8] = herbicide 30 g/ha, cloquintocet-mexyl 50 g/ha
[9] = herbicide 45 g/ha, cloquintocet-mexyl 50 g/ha
[10] = herbicide 60 g/ha, cloquintocet-mexyl 0 g/ha
[11] = herbicide 60 g/ha, cloquintocet-mexyl 50 g/ha

Question: Which results are given for `Cc1cc(C)c(C2C(=O)C[C@H](CCNC(=O)c3ccc(Br)cn3)C2=O)c(C)c1` (some centres unmarked) [Compound A120B]?
Answer: Post-emergence herbicidal activity, percentage phytotoxicity, AVEFA (Avena fatua (AVEFA); [4]): 3%; Post-emergence herbicidal activity, percentage phytotoxicity, AVEFA (Avena fatua (AVEFA); [5]): 10%; Post-emergence herbicidal activity, percentage phytotoxicity, AVEFA (Avena fatua (AVEFA); [6]): 38%; Post-emergence herbicidal activity, percentage phytotoxicity, AVEFA (Avena fatua (AVEFA); [7]): 48%; Post-emergence herbicidal activity, percentage phytotoxicity, LOLMU [1, 4]: 58%; Post-emergence herbicidal activity, percentage phytotoxicity, LOLMU [1, 5]: 73%; Post-emergence herbicidal activity, percentage phytotoxicity, LOLMU [1, 6]: 83%; Post-emergence herbicidal activity, percentage phytotoxicity, LOLMU [1, 7]: 73%; Post-emergence herbicidal activity, percentage phytotoxicity, POAAN (Poa annua (POAAN); [4]): 0%; Post-emergence herbicidal activity, percentage phytotoxicity, POAAN (Poa annua (POAAN); [5]): 0%; Post-emergence herbicidal activity, percentage phytotoxicity, POAAN (Poa annua (POAAN); [6]): 4%; Post-emergence herbicidal activity, percentage phytotoxicity, POAAN (Poa annua (POAAN); [7]): 4%; Post-emergence herbicidal activity, percentage phytotoxicity, SETVI (Setaria viridis (SETVI); [4]): 40%; Post-emergence herbicidal activity, percentage phytotoxicity, SETVI (Setaria viridis (SETVI); [5]): 65%; Post-emergence herbicidal activity, percentage phytotoxicity, SETVI (Setaria viridis (SETVI); [6]): 68%; Post-emergence herbicidal activity, percentage phytotoxicity, SETVI (Setaria viridis (SETVI); [7]): 68%; Post-emergence herbicidal activity, percentage phytotoxicity, ALOMY [2, 4]: 43%; Post-emergence herbicidal activity, percentage phytotoxicity, ALOMY [2, 5]: 58%; Post-emergence herbicidal activity, percentage phytotoxicity, ALOMY [2, 6]: 73%; Post-emergence herbicidal activity, percentage phytotoxicity, ALOMY [2, 7]: 70%; Percentage Phytotoxicity Spring Barley “Harrington” [3, 8]: 3%; Percentage Phytotoxicity Spring Barley “Harrington” [3, 9]: 10%; Percentage Phytotoxicity Spring Barley “Harrington” [3, 10]: 53%; Percentage Phytotoxicity Spring Barley “Harrington” [3, 11]: 23%; Percentage Phytotoxicity Winter Barley “Suzuka” (Winter Barley “Suzuka”; [8]): 3%; Percentage Phytotoxicity Winter Barley “Suzuka” (Winter Barley “Suzuka”; [9]): 9%; Percentage Phytotoxicity Winter Barley “Suzuka” (Winter Barley “Suzuka”; [10]): 75%; Percentage Phytotoxicity Winter Barley “Suzuka” (Winter Barley “Suzuka”; [11]): 13%; Percentage Phytotoxicity Winter Wheat “Hereward” (Winter Wheat “Hereward”; [8]): 7%; Percentage Phytotoxicity Winter Wheat “Hereward” (Winter Wheat “Hereward”; [9]): 10%; Percentage Phytotoxicity Winter Wheat “Hereward” (Winter Wheat “Hereward”; [10]): 58%; Percentage Phytotoxicity Winter Wheat “Hereward” (Winter Wheat “Hereward”; [11]): 13%
